Patent publication US12263155B2, “Combinations of monoamine oxidase inhibitors and serotonin receptor agonists and their therapeutic use” (Remedi, Inc., priority 2022, dated 2025)
Where two headings read alike, the source gives them in different places.

Experiments:
[1] = 10, 20 and 40 mg twice daily for 14 days, healthy volunteers
Protocol: Methods: The study was a Phase I, single-center, randomized, parallel-group, multiple-dose, placebo-controlled, pharmacodynamic, pharmacokinetic and safety study in healthy volunteers. To obtain 24 enrolled subjects, screening procedures and inclusion/exclusion criteria were evaluated for 54 subjects during a variable screening period of up to 28 days. Once enrolled, subjects were randomized to either CX157 10 mg, 20 mg or 40 mg or matching placebo administered twice daily for 14 consecutive days.

[2] = Fed versus fasted pharmacokinetics of modified release tablet; format: in vivo; settings: human, plasma, oral, 175 mg; fed and fasted; read-out: half-life, mean, range over treatments
Protocol: Methods: A total of 18 subjects were to participate and receive a single dose of CX157 Modified Release Tablet, 175 mg in fed or fasted states according to a randomization schedule. There was a six to seven-day washout period between the two study drug administrations.
Each CX157 Modified Release Tablet, 175 mg is stored long-term at controlled room temperature conditions [25° C. (77° F.), excursions 15-30° C. (59-86° F.)]; the tablets are a modified caplet shape, pale pink in color, and plain on both sides.

[3] = Protocol: Methods: The trial was a Phase 1, single center, double-blind, placebo-controlled, sequential group, acute dose escalation study of the safety and pharmacokinetics of seven (7) CX157 dose levels in healthy male volunteers. Each of the seven (7) dose groups consisted of six (6) subjects, with the exception of cohort 2 (CX157 10 mg or placebo) which enrolled only five (5) subjects. Within each dose group, four (4) subjects were randomized to CX157 and two (2) subjects to placebo. Subjects were normal healthy volunteers confined to the study center for approximately 4 days, beginning approximately 16 hours before exposure to study drug and ending approximately 48 hours after exposure to study drug. Safety and tolerability was assessed for each dose group by the Principal Investigator before advancing to the next scheduled dose group. CX157 was administered as a fully solubilized microemulsion in Labrasol™
rat brain MAO-B = target: T1, rat brain MAO-B (Rattus norvegicus, UniProt P19643); experiment: In vitro inhibition of rat brain MAO-B; format: biochemical; settings: 10 μM [14C]-PEA, all concentrations tested
T1 construct: from tissue; host or cells: rat brain
T1 sequence (P19643 1-520): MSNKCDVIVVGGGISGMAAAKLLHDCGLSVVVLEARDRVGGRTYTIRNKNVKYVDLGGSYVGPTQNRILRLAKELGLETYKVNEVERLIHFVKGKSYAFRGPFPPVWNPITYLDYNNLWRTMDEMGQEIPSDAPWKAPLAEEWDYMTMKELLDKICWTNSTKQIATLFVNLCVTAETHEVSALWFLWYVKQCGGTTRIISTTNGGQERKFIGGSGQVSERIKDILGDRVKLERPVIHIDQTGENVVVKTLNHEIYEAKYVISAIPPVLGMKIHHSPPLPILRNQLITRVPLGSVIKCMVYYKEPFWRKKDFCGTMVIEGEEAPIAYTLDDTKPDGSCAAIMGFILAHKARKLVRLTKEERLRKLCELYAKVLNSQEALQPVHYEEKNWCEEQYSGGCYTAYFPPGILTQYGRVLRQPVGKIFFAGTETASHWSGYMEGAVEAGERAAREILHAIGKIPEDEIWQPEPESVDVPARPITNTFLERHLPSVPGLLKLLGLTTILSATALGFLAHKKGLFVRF
Protocol: Methods: The soluble extract of the mitochondrial enriched fraction (P2 pellet), which was prepared from brain homogenates of male Sprague-Dawley rats, served as the source of MAO-A enzymatic activity. The P2 fraction was prepared and was stored frozen until being thawed for use on the day of assay. Final concentrations of 50 μM [^14C]-serotonin (5-HT) and 10 μM [^14C]-phenylethylamine (PEA) were employed as specific substrates for MAO-A and MAO-B, respectively. Test compound inhibition was based on competition for oxidation of these radio-labeled substrates. MAO-A assay specificity was enhanced by inclusion of 0.1 μM deprenyl to prevent substrate oxidation by MAO-B. Likewise, MAO-B assays included 0.1 μM clorgyline to block MAO-A activity. […] Inhibition of enzymatic activities was expressed as IC50 and as the Ki, which was calculated using the Cheng-Prusoff equation.

Q: Which safety and tolerability [1] does the source give for O=S1(=O)c2ccc(F)cc2Oc2cc(OCC(F)(F)F)ccc21 [CX157, 3-fluoro-7(2,2,2-trifluorethoxy)phenoxathiine-10,10-dioxide] here?
A: generally safe and well tolerated

Q: And the half-life [2]?
A: 20.6 to 23.5 h

Q: And the “percent of subjects experiencing adverse events” value ([3]; all CX157 groups, single doses)?
A: 89%

Q: What about the safety and tolerability ([3]; healthy volunteers, single dose escalation) of the same compound?
A: safe and well tolerated

Q: And the “inhibition of rat brain MAO-B” value (rat brain MAO-B)?
A: did not inhibit
